{"source": "patent US11236120B2", "about": "“Azithromycin derivatives with epithelial barrier enhancement properties” (EpiEndo Pharmaceuticals ehf, priority 2015, dated 2022)", "key": {"[1]": {"test": "Stability in human plasma", "assay_type": "in vitro ADME", "conditions": "room temperature", "procedure": "Stability in Mouse and Human Plasma\nThe stability of the compounds in mouse and human plasma was performed using protein precipitation as sample clean-up and HPLC-MS detection. The plasma stability studies of the compounds was performed at room temperature for up to 4 hours. A stock solution of […] in DMSO was prepared for each compound. For the plasma stability samples, 100 μL of the stock solution was diluted with 3.9 mL of either mouse or human plasma to a final concentration of […]. The plasma was left to equilibrate for 10 minutes at room temperature before the first analysis. For each analyzed time point ([…]) a 100 μL aliquot of the plasma was removed and protein precipitation (PPT) was performed on the aliquot by adding 900 μL of (ACN:DMSO) 95:5. The precipitated sample was shaken for 60 seconds and then centrifuged. The supernatant was transferred to an HPLC vial and analyzed using HPLC-MS. The chromatographic signal area of the samples at the different time points were then compared against each other, by setting the initial analysis at t=0 min as 100% and then calculating the %-value for each subsequent time point.\n(§1) The chromatographic separation was performed on a Waters HPLC-MS system using a 50×2.1 mm×Bridge C18 column and a gradient elution of Water with 0.1% formic acid and acetonitrile with 0.1% formic acid. The analytes were analyzed in positive electro-spray mode using the (M+H)^+ in single ion recording."}, "[2]": {"tested_on": "barrier integrity in the lungs of mice under sulphur dioxide insult", "test": "Barrier integrity enhancement in the lung: HSA leakage into BAL after sulphur dioxide insult", "assay_type": "in vivo", "procedure": "The effect of compounds of the invention on maintenance of barrier integrity in the lungs of mice under sulphur dioxide insult was investigated.\n1. 15 female mice were randomised into 3 groups of 5 mice. The three groups were: • a) Control group • b) Azithromycin treatment group • c) Investigational compound treatment group\n2. The mice were pre-treated for three days with: • a) Placebo (Phosphate buffered saline—PBS) given at a dose of 10 mg/kg in an intravenous injection of 100 μl three times per week. • b) Azithromycin: given at a dose of 10 mg/kg in an intravenous injection of 100 μl three times per week. • c) The compound of Example 2: given at a dose of 10 mg/kg in an intravenous injection of 100 μl three times per week.\n3. One mouse in each group was set to one side as a control. Four mice were then exposed to sulphur dioxide gas at a concentration of 200 ppm in air for a period of 60 minutes. The mice were in a cage that was inserted into a 45 L treatment box with a removable lid, a gas feed line and a gas exhaust vent. […] The gas was premixed from bottled air and bottled 200 ppm SO2 in a first box and then fed into the treatment box. The level of SO2 being fed into the treatment box can be varied by adjusting the relative flow of air and SO2 from the two source cylinders. As the sulphur dioxide concentration in this experiment was 200 ppm, it was used neat, with no additional air being mixed with it. The mice had access to food and water for the duration of the treatment.\n4. 24 hours after the end of the treatment, 1 mg of human serum albumin (HSA) in 100 μl saline was injected into the tail vein of each mouse, and fluorescent dextrans (FDs) were injected into the airways. The mice were then kept sedated for 90 minutes.\n5. After 90 minutes, the mice were sacrificed via exsanguination. Plasma and bronchoalveolar lavage (BAL) were collected and the lungs were processed for paraffin embedding.\n6. The level of HSA in the BAL was quantified by ELISA. The ELISA test used was the one commercially available from abcam (Human Serum Albumin kit ab179887). In line with the kit manufacturer's instructions, absorbance at […] was measured. Fluorescent dextrans are quantified using a fluorescent plate reader.\nThe level of HSA that leaks into the lungs, as found in the BAL, is a measure of the integrity of the lung epithelial barrier.\nIn the placebo group, there were experimental difficulties with two of the four mice; in the Azithromycin group, there were experimental difficulties with one of the four mice; and in the investigational compound group, there were experimental difficulties with two of the four mice. Therefore, results were obtained from two mice in each of the placebo and investigational compound groups, and from three mice in the Azithromycin group."}, "[3]": {"test": "Solubility in 10 mM phosphate buffer (pH 7.4)", "assay_type": "physicochemical", "conditions": "pH 7.4, aqueous buffer, kinetic from dmso stock, 60 minutes at room temperature, filtered, read-out: MTS Solubility in Buffer (pH 7.4)", "procedure": "Solubility in 10 mM Phosphate Buffer (pH 7.4)\nThe solubility sample testing of the compounds was performed by in phosphate buffer at pH 7.4 and using HPLC-MS detection. A stock solution of […] in DMSO was prepared for each compound. For the solubility test sample, 100 μL of the stock solution was diluted with 3.9 mL of a 10 mM phosphate buffer at […] to a final concentration of […]. The buffer solution was left to stand for 60 minutes at room temperature and then filtered. The filtrate was analyzed against two calibration points of the same analyte prepared at […] using HPLC-MS. These calibration points were prepared from the same stock solution as the solubility sample by diluting it with DMSO:H2O (1:1) 1:40 and then again 1:10. The chromatographic signal area of the analyte in the solubility sample was then compared to the chromatographic signal area of the two calibration samples.\nas §1"}, "[4]": {"tested_on": "epithelial cells in vitro ALI culture", "conditions": "cited from earlier work"}, "[5]": {"tested_on": "Mycobacterium avium complex (MAC)", "test": "Assay 2: STC colorimetric microplate assay, comparison over the Mycobacteria studied", "assay_type": "cell-based", "conditions": "all four strains of M. avium and M. intracellulare"}}, "note": "“Also recorded” adds a separate entry of the source."}
{"molecule": "CC[C@H]1OC(=O)[C@H](C)[C@@H](O)[C@H](C)[C@@H](O[C@@H]2O[C@H](C)C[C@H](N(C)C)[C@H]2OC(=O)c2ccccc2)[C@](C)(O)C[C@@H](C)CN(C)[C@H](C)[C@@H](O)[C@]1(C)O", "note": "[Example 2]", "values": [{"measurement": "Degradation in Human Plasma at RT", "setting": "[1]", "result": "Stable"}, {"measurement": "HSA level - absorbance at 600 nm", "setting": "[2]; HSA in BAL by ELISA, mice, 10 mg/kg intravenous, 200 ppm SO2 for 60 minutes", "result": "0.373 ± 0.037"}, {"measurement": "leakage of HSA into the lung following SO2 insult", "setting": "[2]; compared with control, FIG. 1", "result": "reduced compared with the control; also recorded: reduced compared with a control"}, {"measurement": "HSA level - absorbance at 600 nm relative to control", "setting": "[2]; relative to PBS control, mice, 10 mg/kg intravenous, 200 ppm SO2 for 60 minutes", "result": "0.640 ± 0.058"}, {"measurement": "solubility at 60 min", "setting": "[3]", "result": 3.62, "unit": "µM"}]}
{"molecule": "penicillin", "values": [{"measurement": "effect on transepithelial resistance (TER) and cellular processing of tight junctions", "setting": "[4]", "result": "not to exhibit similar effects"}]}
{"molecule": "CC[C@H]1OC(=O)[C@H](C)[C@@H](O[C@H]2C[C@@](C)(OC)[C@@H](O)[C@H](C)O2)[C@H](C)[C@@H](O[C@@H]2O[C@H](C)C[C@H](N(C)C)[C@H]2O)[C@](C)(O)C[C@@H](C)C(=O)[C@H](C)[C@@H](O)[C@]1(C)O", "note": "[Erythromycin]", "values": [{"measurement": "effect on transepithelial resistance (TER) and cellular processing of tight junctions", "setting": "[4]", "result": "not to exhibit similar effects"}]}
{"molecule": "CC[C@H]1OC(=O)[C@H](C)[C@@H](O[C@H]2C[C@@](C)(OC)[C@@H](O)[C@H](C)O2)[C@H](C)[C@@H](O[C@@H]2O[C@H](C)C[C@H](N(C)C)[C@H]2O)[C@](C)(OC)C[C@@H](C)C(=O)[C@H](C)[C@@H](O)[C@]1(C)O", "note": "[Clarithromycin]", "values": [{"measurement": "sensitivity of the MAC strains used", "setting": "[5]", "result": "sensitive"}]}
